Laboratory results as given in patent publication US5385829A, “Method of assaying for acyl-L-carnitines and short-chain acyl-carnitines” (priority 1990, dated 1995).

Tests used:
[1] = test system: L-carnitine dehydrogenase; experiment: Substrate specificity of L-carnitine dehydrogenase; assay type: biochemical; conditions: L-carnitine dehydrogenase from Alcaligenes sp. No. 981
Experimental: 1 ml of the reaction solution was placed in a small test tube and incubated at 37° C. for 5 mins. and thereto was added 0.02 ml of the […] solution to be examined, to cause the reaction, with agitation. After 10 mins. 2 ml of 0.1N aq. HCl were added thereto to terminate the reaction and the A550 nm of the solution was measured to obtained the absorbance A1.
On the other hand, the same procedures were repeated for a reaction solution in which the L-carnitine was omitted, to obtain the absorbance A0.

[2] = test system: L-carnitine dehydrogenase; experiment: Km values and coenzyme reactivity of L-carnitine dehydrogenase; assay type: biochemical, Alcaligenes sp. No. 981; conditions: for Km: L-carnitine dehydrogenase, 100 mM tris-HCl buffer pH 9.0
Experimental: The L-carnitine dehydrogenase used in preparing the analysis reagent for determining the amount of L-carnitine, should have reactivity to the substrate, namely, L-carnitine, and may be employed in combination with a coenzyme such as an NAD (preferably NAD or thio-NAD). Such reactivity can be confirmed using the combination of such coenzyme with the substrate. For example, it has been confirmed that, when using L-carnitine as the substrate and thio-NAD as the coenzyme in 100 mM tris-HCl buffer solution (pH 9.0), the L-carnitine dehydrogenase produced from Alcaligenes sp.
Km value for NAD^+ was determined by varying the concentration of the NAD^+ in a reaction solution containing 100 mM tris-HCl buffer solution (pH 9.0). 5 units of diaphorase (a product of Toyo Jozo), 0.025% of NBT (a product of Wako Pure Chemical Ind.), 1% of Tween 80 (a product of Wako Pure Chemical Ind.) and 50 mM L-carnitine, whereby a value of 0.141 mM was obtained.

Compound	Relative Specificity % [1] [%]	Km [2] [µM]	Km ([2]; listed as NAD^+) [µM]	enzymatic activity relative to the activity when using NAD as the coenzyme ([2]; L-carnitine as substrate, 100 mM tris-HCl pH 9.0)
C[N+](C)(C)CC(=O)[O-] [Glycinebetaine]	0	–	–	–
C[N+](C)(C)C[C@H](O)CC(=O)[O-] [L-carnitine]	100	9300	–	–
NCCCC[C@H](N)C(=O)O [Lysine]	0	–	–	–
NC(=O)c1ccc[n+]([C@@H]2O[C@H](COP(=O)([O-])OP(=O)(O)OC[C@H]3O[C@@H](n4cnc5c(N)ncnc54)[C@H](O)[C@@H]3O)[C@@H](O)[C@H]2O)c1 [NAD, nicotinamide adenine dinucleotide]	–	140	141	–
NC(=S)c1ccc[n+]([C@@H]2O[C@H](COP(=O)([O-])OP(=O)(O)OC[C@H]3O[C@@H](n4cnc5c(N)ncnc54)[C@H](O)[C@@H]3O)[C@@H](O)[C@H]2O)c1 [thio-NAD, thionicotinamide adenine dinucleotide]	–	490	–	about 15%
Glucose	0	–	–	–
